What was measured:
Panc89 cells = assay: Confluence measurement (cell growth), Panc89; assay type: cell-based, human; details: Panc89, 1-10 µM, 72 h, 25 mM or 5 mM D-glucose
[1] = target: T1, human USP7 full length protein (Homo sapiens, UniProt Q93009); assay: USP7 inhibition assay (Ubiquitin-Rhodamine110Gly cleavage); assay type: biochemical; details: Ub-RhoG cleavage, read-out: IC50 (half-maximal inhibition)
T1 construct: human USP7 full length protein
Description: USP7 inhibitors in DMSO were diluted in UbR buffer (40 mM Tris-HCl pH 8, 150 mM NaCl, 1 mM TCEP, 0.1 mg/mL BSA, 0.01% Tween20) to a concentration of 80 μM (4x). This stock was then further diluted in an 11-times serial dilution in UbR buffer containing 4% DMSO (4x). To this was added the same volume of human USP7 full length protein[59] […] The assay was initiated upon addition of 10 μL per well of Ubiquitin-Rhodamine110Gly (Ub-RhoG) (100 nM in UbR buffer, 2x). […] Normalization was carried out using samples featuring either no inhibitor or no enzyme as respective controls. […] Slopes of fluorescence over time curves were determined with Microsoft Excel through linear regression using the first 15 min of each measurement.

[2] = tested on: Ma-Mel-47 USP7 K.O. cells; assay: Medium color switch (images), Ma-Mel-47 USP7 K.O. cells; assay type: cell-based, human; details: Ma-Mel-47 USP7-KO, 72 h, 5 µM NK192, 10 µM FT671, 1 µM NK266
USP7 [3] = target: T2, USP7 (Homo sapiens, UniProt Q93009); assay: PROTAC rescue experiments, Western blot, Panc89 and Ma-Mel-47 cells; assay type: cell-based; details: 2 h pretreatment (MLN4924 500 nM, CFZ 250 nM, NK249 10 µM), then 1 µM NK250 or NK266 for 20 h
T2 construct: allowed the analysis of endogenous USP7 degradation in both cell lines; endogenous in cells; host or cells: Panc89 (PDAC) and Ma-Mel-47 (melanoma) cells
Description: Cells were treated with proteasome inhibitor Carfilzomib (CFZ, 250 nM), NEDDylation Inhibitor MLN4924 (500 nM) or VHL inhibitor NK249 (10 µM). After 2 h, PROTAC (1 µM) was added. Cells were analyzed after 20 h.

HiBiT-USP7 = HiBiT-USP7 (Homo sapiens, UniProt Q93009); assay: HiBiT USP7 degradation assay, MV4-11 cells; assay type: cell-based; details: MV4-11 HiBiT-USP7, 6 h and 24 h
Description: HiBiT-USP7 construct was cloned by extraction of USP7 fragment from plasmid pQHA-USP7 WT puroR (Addgene #46753) using appropriate restriction sites. The USP7 fragment was then ligated into the pRRL-PGK-HiBiT entry vector to generate the plasmid.
Lentiviral infection was used to generate stable a MV4-11 HiBiT cell line. Lentivirus was produced using plasmids psPAX2, pMD2.G, and HiBiT-USP7 plasmid in HEK293 cells. MV4-11 cells were infected with filtered virus supernatant and selected after 48 h of infection for the generation of the stable MV4-11^HiBiT-USP7 cell line.
The assay was performed as described previously. Briefly, MV4-11^HiBiT-USP7 cells were seeded and treated with compounds for the indicated time. Nano-Glo HiBiT Lytic Detection System (Promega) was used for the assay and luminescence was measured on a Tecan Spark microplate reader (Tecan). DC50 values were calculated using the sigmoidal dose-response (four parameters) equation in GraphPad Prism and are given as the concentration where 50% of the total signal was remaining. Dmax values are given as the maximum degradation observed at any concentration.

USP7 [4] = target: T2, USP7; assay: USP7 degradation, Western blot densitometry, Ma-Mel-47 cells; assay type: cell-based; details: Ma-Mel-47, 5 µM, 24 h, Western blot
Description: (§1) The melanoma cell line Ma-Mel-47 (established previously[57] from metastatic lesions from patient tumor tissues after written informed consent) and the PDAC cell line Panc89 (RRID: CVCL_4056, also referenced as T3M-4[58]) were cultured in a humidified incubator with 5% CO2 at 37 °C in RPMI1640 (Ma-Mel-47) / DMEM (Panc89) medium containing 10% (v/v) fetal calf serum (FCS) and penicillin/streptomycin (all Gibco, Thermo Fisher Scientific). Studies on human material were approved by the institutional review board. […] Testing for mycoplasma was performed by PCR monthly. To confirm cell identity, STR analysis was performed by the Microsynth Seqlab GmbH.
(§2) To prepare samples for Western blot analysis, cells were seeded in 6-well dishes the day before treatment to adhere at 70–80% confluency.
(§3) Cell pellets of all PDAC samples were lysed via adding a buffer containing 150 mM NaCl, 50 mM Tris/HCl (pH 7.4), 1% Triton X-100, 10 mM EDTA, 1 mM PMSF, 10 mM orthovanadate, and 1% aprotinin, incubating on ice for 1 h with vortexing every 15 minutes. Lysates were cleared of cell debris by centrifugation at 10,000 ×g at 4 °C for 10 min. […] Lysates were then clarified of cell debris by centrifugation at 13,000 ×g at 4 °C for 15 min. Thereafter, the total protein concentrations were either determined immediately or the protein extracts were stored at −20 or −80 °C. Pellets for samples shown in Fig. 6 and Supplementary Fig. 6 were lysed in 120 µL lysis buffer (50 mM Tris pH 8.0, 150 mM NaCl, 1% (v/v) IGEPAL, 0.5% (w/v) Na-deoxycholate, 0.1% (w/v) SDS) supplemented with 1x EDTA-free inhibitor protease cocktail (cOmplete, Roche) for 15 min at 4 °C. 0.2 µL Turbonuclease (Sigma Aldrich) and 5 mM MgCl2 were then added and lysates were incubated for 15 min at 4 °C. Cell debris was separated by centrifugation at 20,817 ×g for 15 min at 4 °C.
(§4) Protein concentrations of cell lysates were measured using the Pierce BCA Protein Assay (Thermo Fisher Scientific) or the Quick Start Bradford Protein Assay (Bio-Rad), following the manufacturers’ protocols. Measurements were recorded on Tecan Spark or Tecan Infinite M200 plate readers. Lysates were kept on ice throughout the entire process.
(§5) To separate proteins via SDS-PAGE, 10-20 µg of protein in lysis buffer was diluted with SDS-PAGE loading buffer (for most blots containing DTT or 2-mercaptoethanol) and denatured at 95 °C for 5 min. Protein separation was conducted at 95–110 V using the Mini-PROTEAN electrophoresis system (Bio-Rad). Proteins were then transferred to PVDF or nitrocellulose membranes using the Trans-Blot Turbo system (Bio-Rad) with the Trans-Blot Turbo RTA Kit for PVDF membranes. Prior to transfer, membranes were activated by soaking in 100% ethanol (for PVDF) or distilled water (for nitrocellulose) and proteins were transferred using the Mixed MW or the standard (1.0 A, 25 V, 30 min) protocol.
(§6) After transfer, membranes were blocked in 5% (w/v) milk/TBS-T for 1 h and then washed three times for 10 min with TBS-T. They were incubated overnight at 4 °C with the primary antibody in 5% (w/v) milk/TBS-T or 1% (w/v) BSA/TBS-T. Membranes were then washed three times for 10 min with TBS-T and incubated with horseradish peroxidase (HRP)-conjugated secondary antibodies in a solution of 5% (w/v) BSA/TBS-T or 1% (w/v) milk/TBS-T for 1 h at room temperature. PBS-T was used for blots shown in Fig. 6 and Supplementary Fig. 6.
(§7) Membranes were incubated with Clarity Western ECL substrate (Bio-Rad) for PDAC samples or Pierce ECL Western Blotting-Substrate (Thermo Fisher Scientific) for melanoma. Chemiluminescent signals were detected with a ChemiDoc Imaging System (Bio-Rad) for PDAC samples or with a ECL Chemostar Imager (Intas Science Imaging) for melanoma samples.
(§8) Densitometric quantification of band intensities for Fig. 2c, d was performed using the ImageJ software.

USP7 [5] = target: T2, USP7; assay: USP7 degradation, Western blot densitometry, Panc89 cells; assay type: cell-based; details: Panc89, 5 µM, 24 h, Western blot
Description: as §1, §2, §3, §4, §5, §6, §7, §8

[6] = target: T3, NanoLuc-USP7 and HaloTag-VHL (Homo sapiens, UniProt P40337+Q93009); assay: Cellular ternary complex formation assay (NanoBRET), HEK293T cells; assay type: cell-based; details: for Ternary complex induction (in words): NanoBRET
T3 construct: expressed in transfected cells; host or cells: HEK293T, transient transfection (FuGENE HD)
Description: The assay was performed as described step-by-step elsewhere. USP7 (NanoLuc-USP7) and VHL (HaloTag-VHL) were cloned in frame with N-terminal NanoLuc or HaloTag, respectively. For transfections, HEK293T cells were diluted in Opti-MEM medium without phenol red (Life Technologies) to 4×10^5 cells/mL and 9 µL were pipetted into each well of a white 384-well plate (Greiner 781207). 1 mL transfection mix was prepared containing 30 µL FuGENE HD (Promega, E2312) and 8 µL of each plasmid, incubated 20 min at RT and 1 µL were pipetted into each well leading to the total assay volume of 10 µL. […] 2 h prior to BRET measurements, the compounds were titrated to the cells using an Echo acoustic dispenser and the cells were incubated further at 37 °C and 5% CO2 to allow complex formation. NanoBRET Nano-Glo substrate and Extracellular NanoLuc Inhibitor (Promega, N2540) were then added as per the manufacturer’s protocol, and filtered luminescence was recorded on a PHERAstar FSX plate reader (BMG Labtech) equipped with a luminescence filter pair (donor: 450 nm BP filter; acceptor: 610 nm LP filter). Data were analyzed using GraphPad Prism 10 software.

T1 sequence (Q93009 whole entry): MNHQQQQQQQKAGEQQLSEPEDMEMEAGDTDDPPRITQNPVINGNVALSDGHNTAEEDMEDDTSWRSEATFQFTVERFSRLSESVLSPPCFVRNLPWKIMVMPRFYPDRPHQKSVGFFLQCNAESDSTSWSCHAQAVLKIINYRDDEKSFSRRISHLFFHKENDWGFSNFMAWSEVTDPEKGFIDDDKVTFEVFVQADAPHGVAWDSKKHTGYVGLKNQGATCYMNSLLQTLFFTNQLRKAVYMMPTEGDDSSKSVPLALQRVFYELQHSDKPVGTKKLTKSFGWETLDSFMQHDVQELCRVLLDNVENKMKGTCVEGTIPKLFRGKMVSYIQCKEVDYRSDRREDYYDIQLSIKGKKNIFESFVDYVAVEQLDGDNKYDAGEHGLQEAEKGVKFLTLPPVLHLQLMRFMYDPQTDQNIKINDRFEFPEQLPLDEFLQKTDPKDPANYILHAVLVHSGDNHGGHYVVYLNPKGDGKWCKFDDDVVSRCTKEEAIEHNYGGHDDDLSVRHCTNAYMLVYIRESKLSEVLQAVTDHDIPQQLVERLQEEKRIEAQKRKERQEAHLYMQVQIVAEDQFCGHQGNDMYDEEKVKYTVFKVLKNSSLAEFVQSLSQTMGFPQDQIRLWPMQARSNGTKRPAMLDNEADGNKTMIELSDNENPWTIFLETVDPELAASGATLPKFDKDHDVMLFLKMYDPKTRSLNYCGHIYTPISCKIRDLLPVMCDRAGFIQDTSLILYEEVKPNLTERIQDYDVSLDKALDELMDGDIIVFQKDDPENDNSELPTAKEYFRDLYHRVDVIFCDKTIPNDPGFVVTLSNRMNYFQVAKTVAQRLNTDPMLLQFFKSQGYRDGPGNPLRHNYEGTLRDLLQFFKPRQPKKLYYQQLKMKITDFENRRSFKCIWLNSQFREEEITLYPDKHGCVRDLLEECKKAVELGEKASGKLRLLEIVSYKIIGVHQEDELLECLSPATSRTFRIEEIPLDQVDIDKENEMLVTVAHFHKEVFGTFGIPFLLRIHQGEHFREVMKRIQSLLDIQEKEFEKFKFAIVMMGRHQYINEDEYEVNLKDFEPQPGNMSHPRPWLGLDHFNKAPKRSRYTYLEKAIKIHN
T2 sequence (Q93009 whole entry): as above
T3 sequence (Q93009 whole entry): as above
T3 sequence (P40337 whole entry): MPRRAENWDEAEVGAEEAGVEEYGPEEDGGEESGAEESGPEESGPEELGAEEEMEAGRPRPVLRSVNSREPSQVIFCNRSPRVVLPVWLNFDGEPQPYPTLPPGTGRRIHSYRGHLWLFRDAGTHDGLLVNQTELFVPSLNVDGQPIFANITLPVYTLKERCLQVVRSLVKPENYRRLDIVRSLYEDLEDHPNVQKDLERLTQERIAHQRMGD
T3 sequence (Q15370 whole entry partner): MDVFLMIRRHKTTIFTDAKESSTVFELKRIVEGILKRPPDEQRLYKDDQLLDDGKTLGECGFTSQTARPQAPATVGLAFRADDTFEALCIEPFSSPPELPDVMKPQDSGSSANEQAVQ
T3 sequence (Q15369 whole entry partner): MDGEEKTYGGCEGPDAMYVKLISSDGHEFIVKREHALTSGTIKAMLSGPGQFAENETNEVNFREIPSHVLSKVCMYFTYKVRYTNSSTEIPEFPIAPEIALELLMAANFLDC
Sequence of HiBiT-USP7 (Q93009 whole entry, the tested form may be a part): as the sequence (Q93009 whole entry) above

Structure (SMILES): O=C(C[C@@H](C(F)F)n1ccc(F)n1)N1CCC(O)(Cn2cnc3c(cnn3-c3ccc(F)cc3)c2=O)CC1 [FT671, reference compound]
- Cell growth (in words) (Panc89 cells): not affected
- IC50 [1]: 13 nM
- Change of media color (in words) [2]: the same change of media color

Structure (SMILES): CCc1c(-c2ccc3[nH]ncc3c2)cnc(N)c1-c1ccc(O)cc1 [GNE-6640]
- IC50 [1]: 545 nM

Structure (SMILES): NS(=O)(=O)OC[C@@H]1C[C@@H](n2ccc3c(N[C@H]4CCc5ccccc54)ncnc32)C[C@@H]1O [MLN4924, Pevonedistat]
- Rescue of PROTAC-mediated USP7 degradation (in words) (USP7 [3]): rescued PROTAC-mediated degradation of USP7

Structure (SMILES): Cc1ncsc1-c1ccc(CNC(=O)C2CC(O)CN2C(=O)C(NC(=O)C2CCC(C(=O)N3CCN(c4ccc(-n5ncc6c(=O)n(CC7(O)CCN(C(=O)CC(C)c8ccccc8)CC7)cnc65)cc4)CC3)CC2)C(C)(C)C)cc1 (stereo not shown) [NK225]
- HiBiT-USP7 levels (in words) (HiBiT-USP7): lower potency
- USP7 degradation (in words) (USP7 [4]): robust degradation of USP7
- USP7 degradation (in words) (USP7 [5]): effectively degraded USP7
- EC50 ([6]; compound 2 h prior BRET measurement, read-out: EC50 (half-maximal ternary complex formation concentration)): 144 nM

Structure (SMILES): Cc1ncsc1-c1ccc(CNC(=O)[C@@H]2C[C@@H](O)CN2C(=O)[C@@H](NC(=O)C23C4C5C2C2C3C4C52C(=O)N2CCC(C3CCN(c4ccc(-n5ncc6c(=O)n(CC7(O)CCN(C(=O)C[C@@H](C)c8ccccc8)CC7)cnc65)cc4)CC3)CC2)C(C)(C)C)cc1 (stereo partly shown) [NK233]
- HiBiT-USP7 levels (in words) (HiBiT-USP7): lower potency
- USP7 degradation (in words) (USP7 [4]): robust degradation of USP7
- USP7 degradation (in words) (USP7 [5]): effectively degraded USP7
- Ternary complex induction (in words) [6]: did not increase the BRET signal to the same level

Structure (SMILES): Cc1ncsc1-c1ccc([C@H](C)NC(=O)[C@@H]2C[C@@H](O)CN2C(=O)[C@@H](NC(=O)C2(F)CC2)C(C)(C)C)cc1 [NK249]
- Rescue of PROTAC-mediated USP7 degradation (in words) (USP7 [3]): rescued PROTAC-mediated degradation of USP7

Structure (SMILES): CC(CC(=O)N1CCC(O)(Cn2cnc3c(cnn3-c3ccc(N4CCN(C(=O)CCOCCOCCOCCNC(=O)CCCCC5SCC6NC(=O)NC65)CC4)cc3)c2=O)CC1)c1ccccc1 (stereo not shown) [NK264]
- IC50 [1]: 15 nM

Structure (SMILES): CC(=O)c1cc([N+](=O)[O-])c(Sc2cccc(Cl)c2Cl)s1 [P5091]
- IC50 [1]: 2070 nM

Structure (SMILES): Cc1ncsc1-c1ccc(CNC(=O)[C@@H]2C[C@@H](O)CN2C(=O)[C@@H](NC(=O)C2(C#N)CC2)C(C)(C)C)cc1 [VH298, reference compound]
- Ternary complex induction (in words) [6]: neither the negative control NK245 nor the VHL ligand VH298 induced a ternary complex

Structure (SMILES): CN1CCN(CCC(=O)Nc2ccc3c(=O)n(CC4(O)CCN(C(=O)[C@@H](CCCNC(=O)c5ccc6c(Cl)c7c(nc6c5)CCCC7)Cc5ccccc5)CC4)cnc3c2)CC1 [XL177A]
- IC50 [1]: 91 nM

Structure (SMILES): CC(C)C[C@H](NC(=O)[C@H](CCc1ccccc1)NC(=O)CN1CCOCC1)C(=O)N[C@@H](Cc1ccccc1)C(=O)N[C@@H](CC(C)C)C(=O)[C@@]1(C)CO1 [carfilzomib, Carfilzomib]
- Rescue of PROTAC-mediated USP7 degradation (in words) (USP7 [3]): rescued PROTAC-mediated degradation of USP7

— PMC13172357 (Nature Communications, 2026)
